Source: US9321737B2, “CDK8-CDK19 selective inhibitors and their use in anti-metastatic and chemopreventative methods for cancer” (SENEX BIOTECHNOLOGY INC, priority 2012, dated 2016)

Experiments:
[1] = system: CDKI pathway (CMV promoter stimulation by p21) in HT1080 fibrosarcoma cells; assay: CDKI pathway inhibition cellular assay (CMV-GFP induction by IPTG-inducible p21); assay type: cell-based, human; details: IPTG-induced p21, CMV-GFP / Hoechst 33342, read-out: Cell-based Assay EC50
Procedure: The compounds described below are shown in Table 1 and the structures of some novel compounds according to the invention are shown in FIG. 1. […] All the compounds were tested for the ability to inhibit the CDKI pathway in a cellular assay described in our previous patent application PCT/US06/01046. This assay is based on the induction of green fluorescent protein (GFP) expression from the cytomegalovirus (CMV) promoter in human HT1080 fibrosarcoma cells that express CDKI p21 from an isopropyl-β-thio-galactoside (IPTG)-inducible promoter. The compound activity as a CDKI pathway inhibitor is measured by its ability to prevent the stimulation of the CMV promoter upon the addition of p21-inducing IPTG. CMV promoter activity is measured by the ratio of GFP fluorescence to the relative cell number, as determined by staining cellular DNA with Hoechst 33342.

[2] = Solubility in 20% propylene glycol; assay type: physicochemical; details: 1 mM, 40° C., 30 min, centrifuged, OD reading
Procedure: (§1) The compounds were also tested for solubility in 20% propylene glycol and in water, as follows. Compounds (dry powder) were dissolved in 20% propylene glycol at a concentration of 1 mM at a temperature of 40° C. with occasional vortexing. After 30 min, the solution was centrifuged at 10,000×g for 5 min. Serial dilutions of the cleared supernatant were prepared and used to measure the compound concentrations through OD reading, relative to 1 μM standard solution of the same compound. The results of the measurement were expressed as % solubility of the compound at 1 mM in 20% propylene glycol. To determine water solubility, the compounds (dry powder) were initially dissolved in water at a concentration of 100 mM at a temperature of 40° C. with occasional vortexing. After 30 min, the solution was centrifuged at 10,000×g for 5 min, and the formation of an insoluble pellet was monitored. At subsequent steps, the compound was attempted to be dissolved at lower concentrations, until no pellet was observed after centrifugation, indicating complete solution of the compound.

Water solubility = assay type: physicochemical; details: 40° C., 30 min, no pellet after centrifugation
Procedure: as §1

MDA-MB-231 = MDA-MB-231 orthotopic TNBC xenograft; assay type: in vivo, female SCID mice; details: 1 mg/kg doxorubicin single dose, three rounds
Procedure: Once tumors were formed, mice were randomized into 4 cohorts (n=10) and treated, at 7-10 day intervals, with three rounds of: vehicle (5 daily doses), 1 mg/kg doxorubicin (single dose), 40 mg/kg Senexin B (5 daily doses) or doxorubicin (single dose)+Senexin B (5 daily doses).

MDA-MB-468 = MDA-MB-468 TNBC xenograft model; assay type: in vivo, female nude mice; details: 40 mg/kg Senexin B daily i.p.; 4 mg/kg doxorubicin two injections two weeks apart
Procedure: Female nude mice were inoculated with MDA-MB-468 cells, and once palpable tumors were formed, mice were randomized into 4 groups, treated daily i.p. with vehicle alone (n=12), 40 mg/kg Senexin B, two injections with 4 mg/kg doxorubicin two weeks apart, or doxorubicin combined with Senexin B (n=8 in each of the latter groups).

[3] = system: MDA-MB-468 TNBC tumor invasion; assay: Histological analysis of MDA-MB-468 tumor invasion (H&E); assay type: in vivo, female nude mice; details: tumors from FIG. 15B experiment
Source text: At the end of the experiment shown in FIG. 15B, mice were sacrificed, tumors were removed, formalin fixed, sectioned and processed for histological analysis after H&E staining.

| Compound | EC50 [1] [µM] | % solubility at 1 mM in 20% propylene glycol [2] [%] | Water Solubility (Water solubility) | lower body weight than control mice (MDA-MB-231) | tumor growth (tumor volumes after 30 days of treatment) (MDA-MB-468) | invasive or non-invasive tumor growth [3] |
| --- | --- | --- | --- | --- | --- | --- |
| COCCNC(=O)c1ccc(CCNc2ncnc3ccc(C#N)cc23)cc1 [SNX2-1-150] | 2.2 | 100 | Soluble at 10 mM | – | – | – |
| N#Cc1ccc2ncnc(NCCc3ccc(C(=O)N4CCCCC4)cc3)c2c1 [SNX2-1-152] | 3.83 | 100 | – | – | – | – |
| CN1CCN(C(=O)c2ccc(CCNc3ncnc4ccc(C#N)cc34)cc2)CC1 [SNX2-1-153] | 5.21 | 100 | Soluble at 10 mM | – | – | – |
| CN(C)CCNC(=O)c1ccc(CCNc2ncnc3ccc(C#N)cc23)cc1 [SNX2-1-155] | 4.57 | 100 | Soluble at 10 mM | – | – | – |
| COc1cccc2c1C(=O)c1c(O)c3c(c(O)c1C2=O)C[C@@](O)(C(=O)CO)C[C@@H]3O[C@H]1C[C@H](N)[C@H](O)[C@H](C)O1 [doxorubicin, reference compound] | – | – | – | about 15% | significantly slowed down the tumor growth | displayed invasive growth |
